# Laboratory results reported in patent US9006143B2, “Synergistic fungicidal active substance combinations” (Bayer Intellectual Property GmbH, priority 2003, dated 2015).
# Where two headings read alike, the source gives them in different places.
# Key:
# [1] = test system: Erysiphe graminis f.sp. hordei; assay: Erysiphe test (barley)/protective; format: in vivo; conditions: single active compound, application rate 12.5 g/ha, protective, evaluation 6 days after inoculation
# Gibberella zeae = format: in vivo; conditions: single active compound, application rate 62.5 g/ha; barley, curative, evaluation 6 days after inoculation
# Sphaerotheca fuliginea [2] = assay: Sphaerotheca fuliginea test (cucumber)/protective; format: in vivo; conditions: protective, 7 days after inoculation; for pest or weed control at 2 g/ha: application rate 2 g/ha
# Alternaria solani = Alternaria solani test (tomato)/protective; format: in vivo; conditions: protective, 3 days after inoculation
# Phytophthora infestans = format: in vivo; conditions: tomato, protective, 3 days after inoculation
# Alternaria mali = Alternaria mali test (in vitro)/microtitre plates; format: cell-based; conditions: microtitre plates, 5 days of incubation
# Septoria tritici = Septoria tritici test (in vitro)/microtitre plates; format: cell-based; conditions: single active compound, application rate 0.01 ppm, microtitre plates, 7 days of incubation
# Source text: For inoculation, a spore suspension of Septoria tritici is used.
# Sphaerotheca fuliginea [3] = assay: Sphaerotheca fuliginea test (gherkin)/protective; format: in vivo; conditions: protective, 21 days after inoculation, application rate 8 ppm
# Puccinia recondita = assay: Puccinia test (wheat)/curative; conditions: single active compound, application rate 62.5 g/ha, curative, evaluation 8 days after inoculation
# Description: Puccinia Test (Wheat)/Curative
# To test for curative activity, young plants are sprayed with a conidia suspension of Puccinia recondita. The plants remain in an incubation cabinet at 20° C. and 100% relative atmospheric humidity for 48 hours.
# The plants are placed in a greenhouse at a temperature of about 20° C. and a relative atmospheric humidity of about 80% to promote the development of rust pustules.
# Evaluation is carried out 8 days after the inoculation.
# Botrytis cinerea = Botrytis cinerea test (bean)/protective; conditions: single active compound, application rate 5 g/ha, protective, evaluation 2 days after inoculation
# Description: After the spray coating has dried on, 2 small pieces of agar colonized by Botrytis cinerea are placed onto each leaf. The inoculated plants are placed in a darkened chamber at about 20° C. and 100% relative atmospheric humidity.
# The size of the infected areas on the leaves is evaluated 2 days after the inoculation.
# Pyrenophora teres = Pyrenophora teres test (barley)/curative; conditions: single active compound, application rate 25 g/ha, curative, evaluation 12 days after inoculation
# Description: Pyrenophora teres Test (Barley)/Curative
# To test for curative activity, young plants are sprayed with a conidia suspension of Pyrenophora teres. The plants remain in an incubation cabinet at 20° C. and 100% relative atmospheric humidity for 48 hours.
# The plants are placed in a greenhouse at a temperature of about 20° C. and a relative atmospheric humidity of about 80%.
# Evaluation is carried out 12 days after the inoculation.
# Rhizoctonia solani = Rhizoctonia solani test (in vitro)/microtitre plates; conditions: microtitre plates, 5 days of incubation
# Description: Rhizoctonia solani Test (in vitro)/Microtitre Plates
# The microtest is carried out in microtitre plates using potato dextrose broth (PDB) as liquid test medium.
# For inoculation, a mycelium suspension of Rhizoctonia solani is used. After 5 days of incubation in the dark and with shaking (10 Hz), for each filled cavity of the microtitre plates, the light transmittance is determined with the aid of a spectrophotometer.
# [4] = Podosphaera fuliginea, 168 h, application rate 0.5 g/ha, read-out: Efficacy in % found
# [5] = Podosphaera fuliginea, 168 h, application rate 1 g/ha, read-out: Efficacy in % found
# [6] = Podosphaera fuliginea, 168 h, read-out: Efficacy in % found
# [7] = Podosphaera fuliginea, 168 h, application rate 20 g/ha, read-out: Efficacy in % found
smiles,measurement,setting,value
"Cn1cc(C(=O)Nc2ccc(F)cc2-c2ccc(Cl)c(Cl)c2)c(C(F)F)n1 [(1-1), N-(3′,4′-dichloro-5-fluoro-1,1′-biphenyl-2-yl)-3-(difluoromethyl)-1-methyl-1H-pyrazole-4-carboxamide]",Efficacy in % found,[1],0%
same,Efficacy in % found,Gibberella zeae,40%
same,pest or weed control at 0.5 g/ha,Sphaerotheca fuliginea [2]; [4],0%
same,pest or weed control at 1 g/ha,Sphaerotheca fuliginea [2]; [5],16%
same,pest or weed control at 2 g/ha,Sphaerotheca fuliginea [2]; [6],36%
same,pest or weed control at 4 g/ha,"Sphaerotheca fuliginea [2]; Podosphaera fuliginea, 168 h, application rate 4 g/ha, read-out: Efficacy in % found",30%
same,Efficacy in % found,Alternaria solani; application rate 0.5 g/ha,42%
same,Efficacy in % found,Alternaria solani; application rate 1 g/ha,61%
same,Efficacy in % found,Phytophthora infestans; application rate 0.5 g/ha,0%
same,Efficacy in % found,Phytophthora infestans; application rate 1 g/ha,0%
same,Efficacy in % found,Phytophthora infestans; application rate 5 g/ha,0%
same,Efficacy in % found,Phytophthora infestans; application rate 10 g/ha,0%
same,Efficacy in % found,Alternaria mali; 0.003 ppm,25%
same,Efficacy in % found,Alternaria mali; 0.03 ppm,51%
same,Efficacy in % found,Septoria tritici,15%
same,Efficacy in % found,Sphaerotheca fuliginea [3],60%
same,Efficacy in % found,Puccinia recondita,22%
same,Efficacy in % found,Botrytis cinerea,54%
same,Efficacy in % found,Pyrenophora teres,43%
same,Efficacy in % found,Rhizoctonia solani; 0.1 ppm,40%
same,Efficacy in % found,Rhizoctonia solani; 0.3 ppm,80%
"Cc1nc(C(F)F)c(C(=O)Nc2ccccc2-c2ccc(Br)cc2)s1 [(1-7), N-(4′-bromo-1,1′-biphenyl-2-yl)-4-(difluoromethyl)-2-methyl-1,3-thiazole-5-carboxamide]",pest or weed control at 0.5 g/ha,Sphaerotheca fuliginea [2]; [4],0%
same,pest or weed control at 1 g/ha,Sphaerotheca fuliginea [2]; [5],0%
same,pest or weed control at 2 g/ha,Sphaerotheca fuliginea [2]; [6],0%
same,Efficacy in % found,Alternaria solani; application rate 0.5 g/ha,28%
same,Efficacy in % found,Alternaria solani; application rate 1 g/ha,63%
CO/C=C(\C(=O)OC)c1ccccc1Oc1cc(Oc2ccccc2C#N)ncn1 [(2-1) azoxystrobin],Efficacy in % found,Sphaerotheca fuliginea [2]; application rate 0.5 g/ha,20%
"CO/N=C(/C1=NOCCO1)c1ccccc1Oc1ncnc(Oc2ccccc2Cl)c1F [(2-2) fluoxastrobin, fluoxastrobin, reference compound]",pest or weed control at 1 g/ha,Sphaerotheca fuliginea [2]; [5],0%
same,Efficacy in % found,Pyrenophora teres,0%
"CNC(=O)/C(=N/OC)c1ccccc1Oc1ncnc(Oc2cccc(Cl)c2C)c1F [(2-3), (2E)-2-(2-{[6-(3-chloro-2-methylphenoxy)-5-fluoro-4-pyrimidinyl]oxy}phenyl)-2-(methoxyimino)-N-methylethanamide, reference compound]",Efficacy in % found,Alternaria solani; application rate 0.5 g/ha,22%
"CO/N=C(/C(=O)OC)c1ccccc1CO/N=C(\C)c1cccc(C(F)(F)F)c1 [(2-4) trifloxystrobin, trifloxystrobin, reference compound]",Efficacy in % found,[1],78%
same,pest or weed control at 2 g/ha,Sphaerotheca fuliginea [2]; [6],10%
"CO/C=C(/C(=O)OC)c1ccccc1COc1cccc(C(F)(F)F)n1 [(2-11) picoxystrobin, picoxystrobin]",Efficacy in % found,Puccinia recondita,78%
"COC(=O)N(OC)c1ccccc1COc1ccn(-c2ccc(Cl)cc2)n1 [(2-12) pyraclostrobin, pyraclostrobin, reference compound]",Efficacy in % found,Gibberella zeae,80%
same,pest or weed control at 2 g/ha,Sphaerotheca fuliginea [2]; [6],0%
CCCC1COC(Cn2cncn2)(c2ccc(Cl)cc2Cl)O1 (centres unmarked) [(3-3) propiconazole],Efficacy in % found,Alternaria solani; application rate 0.5 g/ha,3%
"Fc1ccc(C2(Cn3cncn3)OC2c2ccccc2Cl)cc1 (centres unmarked) [(3-12) epoxyconazole, epoxiconazole]",Efficacy in % found,Gibberella zeae,0%
"OC(Cc1ccccc1Cl)(Cn1ncnc1S)C1(Cl)CC1 (centres unmarked) [(3-15) prothioconazole, prothioconazole, reference compound]",Efficacy in % found,[1],67%
same,pest or weed control at 1 g/ha,Sphaerotheca fuliginea [2]; [5],43%
"CC(C)(C)C(O)(CCc1ccc(Cl)cc1)Cn1cncn1 (centres unmarked) [(3-17) tebuconazole, tebuconazole, reference compound]",pest or weed control at 1 g/ha,Sphaerotheca fuliginea [2]; [5],10%
same,Efficacy in % found,Pyrenophora teres,29%
CC(C)(C)C(O)C(Oc1ccc(-c2ccccc2)cc1)n1cncn1 (centres unmarked) [(3-21) bitertanol],Efficacy in % found,Sphaerotheca fuliginea [2]; application rate 1 g/ha,0%
Cc1ccc(N(SC(F)(Cl)Cl)S(=O)(=O)N(C)C)cc1 [(4-2) tolylfluanid],Efficacy in % found,Sphaerotheca fuliginea [2]; application rate 20 g/ha,0%
same,Efficacy in % found,Phytophthora infestans; application rate 10 g/ha,0%
Cc1ccc(C(C)NC(=O)[C@@H](NC(=O)OC(C)C)C(C)C)cc1 (some centres unmarked) [(5-1) iprovalicarb],Efficacy in % found,Phytophthora infestans; application rate 5 g/ha,61%
same,Efficacy in % found,Phytophthora infestans; application rate 10 g/ha,64%
CC(C)OC(=O)N[C@H](C(=O)N[C@H](C)c1nc2ccc(F)cc2s1)C(C)C [(5-3) benthiavalicarb],Efficacy in % found,Alternaria solani; application rate 1 g/ha,5%
same,Efficacy in % found,Phytophthora infestans; application rate 0.5 g/ha,56%
O=C(Nc1ccccc1-c1ccc(Cl)cc1)c1cccnc1Cl [(6-2) boscalid],Efficacy in % found,Sphaerotheca fuliginea [3],50%
CC1(C(=O)Nc2ccc(O)c(Cl)c2Cl)CCCCC1 [(6-6) fenhexamid],Efficacy in % found,Sphaerotheca fuliginea [2]; application rate 20 g/ha,0%
"N#Cc1ccccc1NC(=O)c1snc(Cl)c1Cl [(6-11), 3,4-dichloro-N-(2-cyanophenyl)isothiazole-5-carboxamide]",Efficacy in % found,Puccinia recondita,0%
CC(C)CC(C)c1sccc1NC(=O)c1cn(C)nc1C(F)(F)F (centres unmarked) [(6-14) penthiopyrad],Efficacy in % found,Sphaerotheca fuliginea [2]; application rate 4 g/ha,0%
"CC(C)CC(C)c1sccc1NC(=O)c1cn(C)nc1C(F)(F)F (centres unmarked) [(6-14), penthiopyrad]",Efficacy in % found,Puccinia recondita,44%
COCC(=O)N(c1c(C)cccc1C)[C@H](C)C(=O)OC [(8-4) metalaxyl-M],Efficacy in % found,Alternaria solani; application rate 0.5 g/ha,7%
COC(=O)[C@@H](C)N(C(=O)Cc1ccccc1)c1c(C)cccc1C [(8-5) benalaxyl-M],Efficacy in % found,Alternaria solani; application rate 0.5 g/ha,14%
"Cc1cc(C)nc(Nc2ccccc2)n1 [(9-3) pyrimethanil, pyrimethanil, reference compound]",pest or weed control at 20 g/ha,Sphaerotheca fuliginea [2]; [7],0%
same,Efficacy in % found,Botrytis cinerea,4%
COC(=O)Nc1nc2ccccc2[nH]1 [(10-3) carbendazim],Efficacy in % found,Alternaria mali; 0.03 ppm,15%
CCCOC(=O)NCCCN(C)C [(11-2) propamocarb],Efficacy in % found,Rhizoctonia solani; 0.1 ppm,25%
"CC(C)NC(=O)N1CC(=O)N(c2cc(Cl)cc(Cl)c2)C1=O [(12-4) iprodione, iprodione, reference compound]",pest or weed control at 20 g/ha,Sphaerotheca fuliginea [2]; [7],0%
same,Efficacy in % found,Botrytis cinerea,13%
"[O-][n+]1nc(-n2ccnc2)nc2ccc(Cl)cc21 [(14-3) triazoxide, triazoxide, reference compound]",Efficacy in % found,Septoria tritici,29%
CCO[PH](=O)[O-].CCO[PH](=O)[O-].CCO[PH](=O)[O-].[Al+3] [(17-1) fosetyl-Al],Efficacy in % found,Rhizoctonia solani; 0.3 ppm,24%
N#Cc1c(Cl)c(Cl)c(Cl)c(C#N)c1Cl [(19-2) chlorothalonil],Efficacy in % found,Sphaerotheca fuliginea [2]; application rate 20 g/ha,0%
CSC1=N[C@@](C)(c2ccccc2)C(=O)N1Nc1ccccc1 [(19-3) fenamidone],Efficacy in % found,Alternaria mali; 0.003 ppm,2%
"CCCN(CC)CC1COC2(CCC(C(C)(C)C)CC2)O1 (centres unmarked) [(19-10) spiroxamine, spiroxamine, reference compound]",pest or weed control at 20 g/ha,Sphaerotheca fuliginea [2]; [7],0%
same,Efficacy in % found,Puccinia recondita,0%
CSC1=N[C@@](C)(c2ccccc2)C(=O)N1Nc1ccccc1 [(19-13) fenamidone],Efficacy in % found,Phytophthora infestans; application rate 0.5 g/ha,41%
O=C(Nc1ccccc1)N(Cc1ccc(Cl)cc1)C1CCCC1 [(20-1) pencycuron],Efficacy in % found,Alternaria mali; 0.003 ppm,11%
"C[C@H](Nc1c(-c2c(F)cc(F)cc2F)c(Cl)nc2ncnn12)C(F)(F)F [(22-1), 5-chloro-N-[(1S)-2,2,2-trifluoro-1-methylethyl]-6-(2,4,6-trifluorophenyl)[1,2,4]triazolo-[1,5-a]pyrimidine-7-amine, reference compound]",pest or weed control at 2 g/ha,Sphaerotheca fuliginea [2]; [6],11%
"CC(C)[C@@H](C)Nc1c(-c2c(F)cc(F)cc2F)c(Cl)nc2ncnn12 [(22-2), 5-chloro-N-[(1R)-1,2-dimethylpropyl]-6-(2,4,6-trifluorophenyl)[1,2,4]triazolo[1,5-a]-pyrimidine-7-amine, reference compound]",pest or weed control at 1 g/ha,Sphaerotheca fuliginea [2]; [5],22%
